Measured values: patent publication US12397056B2, “System for inducing sonoporation of a drug into cancer cells and method thereof” (Freedom Waves S.R.L, priority 2018, dated 2025)

Columns and labels:
Format in all cases: cell-based
[1] = system: MiaPaCa-2: human pancreatic adenocarcinoma; experiment: Cell death of MiaPaCa-2 cells after drug with or without pLINFU sonoporation; conditions: MiaPaCa2
Procedure: (§1) The system of the present invention was tested in vitro using two cellular lines of human breast cancer and one cellular line of human pancreatic adenocarcinoma. In particular the following cellular lines were employed: • MCF-7: human breast ductal carcinoma; • MDA-MB-231: estrogen independent human breast adenocarcinoma; • MiaPaCa-2: human pancreatic adenocarcinoma.
(§2) For each combination the percentage of cell death was measured in three main experimental conditions: • administration of the drug (hereinafter named “NO-US” condition); • administration of the drug and simultaneous administration of non focalized pulsed low-intensity ultrasound with a frequency of 1 MHz and a period of 1 second, said drug being administered in a unique dose; • 1 administration of non focalized pulsed low-intensity ultrasound with a frequency of 1 MHz and a period of 1 second, followed by administration of the drug; and • administration of the drug and simultaneous administration of non focalized pulsed low-intensity ultrasound with a frequency of 1 MHz and a period of 1 second, said drug being administered in two doses of equal concentration (hereinafter termed “US-DC” condition).
(§3) All the experimental conditions, other than NO-US, were replicated for different values of duty cycle and each experimental condition were replicated for three different total concentrations of drugs. Several operation times were also tested for each cellular lines and for each type of drug.

[2] = system: MDA-MB-231: estrogen independent human breast adenocarcinoma; experiment: Cell death of MDA-MB-231 cells after drug with or without pLINFU sonoporation
Procedure: as §1, §2, §3

[3] = system: MCF-7: human breast ductal carcinoma; experiment: Cell death of MCF-7 cells after drug with or without pLINFU sonoporation
Procedure: as §1, §2, §3

[4] = total concentration 0.5 μM, NO-US (no ultrasound)
[5] = total concentration 0.5 μM, US-DC = 9%
[6] = total concentration 0.5 μM, US-DC = 9% (pLINFU 1 MHz, 20 s + 20 s)
[7] = total concentration 0.5 μM, US-DC = 12%
[8] = total concentration 0.5 μM, US-DC = 12% (pLINFU 1 MHz, 20 s + 20 s)
[9] = total concentration 10 μM, NO-US (no ultrasound)
[10] = total concentration 10 μM, US-DC = 9%
[11] = total concentration 10 μM, US-DC = 9% (pLINFU 1 MHz, 20 s + 20 s)
[12] = total concentration 10 μM, US-DC = 12%
[13] = total concentration 10 μM, US-DC = 12% (pLINFU 1 MHz, 20 s + 20 s)
[14] = total concentration 50 μM, NO-US (no ultrasound)
[15] = total concentration 50 μM, US-DC = 9%
[16] = total concentration 50 μM, US-DC = 9% (pLINFU 1 MHz, 20 s + 20 s)
[17] = total concentration 50 μM, US-DC = 12%
[18] = total concentration 50 μM, US-DC = 12% (pLINFU 1 MHz, 20 s + 20 s)

## CCc1c2c(nc3ccc(OC(=O)N4CCC(N5CCCCC5)CC4)cc13)-c1cc3c(c(=O)n1C2)COC(=O)[C@]3(O)CC [Irinotecan]
[1]; total concentration 0.05 μM, NO-US (no ultrasound)
  Cell Death %: 11.5%
[1]; total concentration 0.05 μM, US-DC = 1%
  Increasing % vs NO-US: +120.8%
[1]; total concentration 0.05 μM, US-DC = 1% (pLINFU 1 MHz, 20 s + 20 s)
  Cell Death %: 25.4%
[1]; total concentration 0.05 μM, US-DC = 12%
  Increasing % vs NO-US: +60.6%
[1]; total concentration 0.05 μM, US-DC = 12% (pLINFU 1 MHz, 20 s + 20 s)
  Cell Death %: 18.5%
[1]; total concentration 1 μM, NO-US (no ultrasound)
  Cell Death %: 21.1%
[1]; total concentration 1 μM, US-DC = 1%
  Increasing % vs NO-US: +62.9%
[1]; total concentration 1 μM, US-DC = 1% (pLINFU 1 MHz, 20 s + 20 s)
  Cell Death %: 34.3%
[1]; total concentration 1 μM, US-DC = 12%
  Increasing % vs NO-US: +42.5%
[1]; total concentration 1 μM, US-DC = 12% (pLINFU 1 MHz, 20 s + 20 s)
  Cell Death %: 30%
[1]; total concentration 50 μM (irinotecan series), NO-US (no ultrasound)
  Cell Death %: 56.7%
[1]; total concentration 50 μM (irinotecan series), US-DC = 1%
  Increasing % vs NO-US: +31.1%
[1]; total concentration 50 μM (irinotecan series), US-DC = 1% (pLINFU 1 MHz, 20 s + 20 s)
  Cell Death %: 74.3%
[1]; total concentration 50 μM (irinotecan series), US-DC = 12%
  Increasing % vs NO-US: +16.5%
[1]; total concentration 50 μM (irinotecan series), US-DC = 12% (pLINFU 1 MHz, 20 s + 20 s)
  Cell Death %: 66%

## CC(=O)O[C@H]1C(=O)[C@@]2(C)[C@H]([C@H](OC(=O)c3ccccc3)[C@]3(O)C[C@H](OC(=O)[C@H](O)[C@@H](NC(=O)c4ccccc4)c4ccccc4)C(C)=C1C3(C)C)[C@]1(OC(C)=O)CO[C@@H]1C[C@@H]2O [Paclitaxel]
[2]; [4]
  Cell Death %: 6.4%
[2]; [5]
  Increasing % vs NO-US: +76.6%
[2]; [6]
  Cell Death %: 11.3%
[2]; [7]
  Increasing % vs NO-US: −7.8%
[2]; [8]
  Cell Death %: 5.9%
[2]; [9]
  Cell Death %: 6.4%
[2]; [10]
  Increasing % vs NO-US: +128.4%
[2]; [11]
  Cell Death %: 14.7%
[2]; [12]
  Increasing % vs NO-US: +15%
[2]; [13]
  Cell Death %: 7.4%
[2]; [14]
  Cell Death %: 7.9%
[2]; [15]
  Increasing % vs NO-US: +221.9%
[2]; [16]
  Cell Death %: 25.5%
[2]; [17]
  Increasing % vs NO-US: +55.3%
[2]; [18]
  Cell Death %: 12.3%
[1]; [4]
  Cell Death %: 45.5%
[1]; total concentration 0.5 μM, US-DC = 1%
  Increasing % vs NO-US: 40.1%
[1]; total concentration 0.5 μM, US-DC = 1% (pLINFU 1 MHz, 20 s + 20 s)
  Cell Death %: 22.7%
[1]; [7]
  Increasing % vs NO-US: 17.1%
[1]; [8]
  Cell Death %: 12.7%
[1]; [9]
  Cell Death %: 65.3%
[1]; total concentration 10 μM, US-DC = 1%
  Increasing % vs NO-US: +22.7%
[1]; total concentration 10 μM, US-DC = 1% (pLINFU 1 MHz, 20 s + 20 s)
  Cell Death %: 12.8%
[1]; [12]
  Increasing % vs NO-US: +12.7%
[1]; [13]
  Cell Death %: 9.2%
[1]; [14]
  Cell Death %: 80.2%
[1]; total concentration 50 μM, US-DC = 1%
  Increasing % vs NO-US: +12.8%
[1]; total concentration 50 μM, US-DC = 1% (pLINFU 1 MHz, 20 s + 20 s)
  Cell Death %: 90.5%
[1]; [17]
  Increasing % vs NO-US: +9.2%
[1]; [18]
  Cell Death %: 87.6%
[3]; [4]
  Cell Death %: 1.0%
[3]; [5]
  Increasing % vs NO-US: +807.5%
[3]; [6]
  Cell Death %: 9.1%
[3]; [7]
  Increasing % vs NO-US: +242.5%
[3]; [8]
  Cell Death %: 3.4%
[3]; [9]
  Cell Death %: 4.1%
[3]; [10]
  Increasing % vs NO-US: +484.7%
[3]; [11]
  Cell Death %: 24%
[3]; [12]
  Increasing % vs NO-US: +221.6%
[3]; [13]
  Cell Death %: 13.2%
[3]; [14]
  Cell Death %: 7.2%
[3]; [15]
  Increasing % vs NO-US: +354.2%
[3]; [16]
  Cell Death %: 32.7%
[3]; [17]
  Increasing % vs NO-US: +147.3%
[3]; [18]
  Cell Death %: 17.8%
